According to the supplement of paper PMC4862054:

Tests used:
Conditions in all cases: incubation time: 72 h
Hs578T [1] = assay: normalised viability (% of control), CellTiter-Blue; higher = more viable cells (100 = DMSO, 0 = benzethonium chloride kill control)
Procedure: (§1)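 DSRT, CellTiter-Blue viability, 72 h incubation. Signal is normalised to DMSO and benzethonium chloride controls. Value is the normalised response at dose 1.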

HCC1143 [2] = assay: as above
Procedure: as §1

MFM-223 [3] = assay: as above
Procedure: as §1

CAL-51 = assay: as above
Procedure: as §1

HCC1937 [4] = assay: as above
Procedure: as §1

BT-549 [5] = assay: as above
Procedure: as §1

MDA-MB-436 [6] = assay: as above
Procedure: as §1

BT-474 [7] = assay: as above
Procedure: as §1

HDQ-P1 = assay: as above
Procedure: as §1

HCC1599 [8] = assay: as above
Procedure: as §1

CAL-85-1 [9] = assay: as above
Procedure: as §1

DU-4475 [10] = assay: as above
Procedure: as §1

Hs578T [11] = assay: drug sensitivity score (DSS), CellTiter-Glo (DSS (AUC-based score)); higher = stronger drug effect (viability inhibition or cytotoxicity); extreme values may be limits of the assay
Procedure, shortened: (§2)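 Breast cancer cell lines were seeded in 20 µl suspension into 384-well plates already holding compound and incubated for 72 h. Each compound was tested at 5 concentrations in 10-fold steps across its own 10,000-fold range. Plates were normalised to 0.1 % DMSO and a positive kill control after CellTox Green and then CellTiter-Glo readings. The area under the fitted dose-response curve served as the basis for the drug sensitivity score.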

CAL-148 = assay: as above
Procedure, shortened: as §2

HCC1143 [12] = assay: as above
Procedure, shortened: as §2

MFM-223 [13] = assay: as above
Procedure, shortened: as §2

HCC1937 [14] = assay: as above
Procedure, shortened: as §2

BT-549 [15] = assay: as above
Procedure, shortened: as §2

CAL-120 = assay: as above
Procedure, shortened: as §2

MDA-MB-468 = assay: as above
Procedure, shortened: as §2

MDA-MB-436 [16] = assay: as above
Procedure, shortened: as §2

BT-474 [17] = assay: as above
Procedure, shortened: as §2

MDA-MB-231 = assay: as above
Procedure, shortened: as §2

HCC1599 [18] = assay: as above
Procedure, shortened: as §2

CAL-85-1 [19] = assay: as above
Procedure, shortened: as §2

MCF-10A = assay: as above
Procedure, shortened: as §2

DU-4475 [20] = assay: as above
Procedure, shortened: as §2

SMILES | normalised viability (Hs578T [1]; 0.1 nM) | normalised viability (HCC1143 [2]; 0.1 nM) | normalised viability (MFM-223 [3]; 0.1 nM) | normalised viability (CAL-51; 0.1 nM) | normalised viability (HCC1937 [4]; 0.1 nM) | normalised viability (BT-549 [5]; 0.1 nM) | normalised viability (MDA-MB-436 [6]; 0.1 nM) | normalised viability (BT-474 [7]; 0.1 nM) | normalised viability (HDQ-P1; 0.1 nM) | normalised viability (HCC1599 [8]; 0.1 nM) | normalised viability (CAL-85-1 [9]; 0.1 nM) | normalised viability (DU-4475 [10]; 0.1 nM) | drug sensitivity score (Hs578T [11]) | drug sensitivity score (CAL-148) | drug sensitivity score (HCC1143 [12]) | drug sensitivity score (MFM-223 [13]) | drug sensitivity score (HCC1937 [14]) | drug sensitivity score (BT-549 [15]) | drug sensitivity score (CAL-120) | drug sensitivity score (MDA-MB-468) | drug sensitivity score (MDA-MB-436 [16]) | drug sensitivity score (BT-474 [17]) | drug sensitivity score (MDA-MB-231) | drug sensitivity score (HCC1599 [18]) | drug sensitivity score (CAL-85-1 [19]) | drug sensitivity score (MCF-10A) | drug sensitivity score (DU-4475 [20]) | normalised viability (Hs578T [1]; 1 nM) | normalised viability (HCC1143 [2]; 1 nM) | normalised viability (MFM-223 [3]; 1 nM) | normalised viability (CAL-51; 1 nM) | normalised viability (HCC1937 [4]; 1 nM) | normalised viability (BT-549 [5]; 1 nM) | normalised viability (MDA-MB-436 [6]; 1 nM) | normalised viability (BT-474 [7]; 1 nM) | normalised viability (HDQ-P1; 1 nM) | normalised viability (HCC1599 [8]; 1 nM) | normalised viability (CAL-85-1 [9]; 1 nM) | normalised viability (DU-4475 [10]; 1 nM)
C/C(=C\c1csc(C)n1)[C@@H]1C[C@@H]2O[C@]2(C)CCC[C@H](C)[C@H](O)[C@@H](C)C(=O)C(C)(C)[C@@H](O)CC(=O)O1 [Patupilone] | 118% | 102% | 104% | 102% | 95.6% | 113% | 116% | 97.7% | 112% | 97.3% | 93.4% | 98.7% | 12.7 | 10.2 | 13.5 | 3.26 | 0.309 | 20.5 | 5.48 | 18.2 | 15 | 5.69 | 6.83 | 2.26 | 16.3 | 8.33 | 6.14 |  |  |  |  |  |  |  |  |  |  |  | 
CNNCc1ccc(C(=O)NC(C)C)cc1 [Procarbazine] |  |  |  |  |  |  |  |  |  |  |  |  | 0 | 0 | 0 | 0 | 0 | 0 | 0 | 0 | 0 | 0 | 0 | 0 | 0 | 0 | 0 | 107% | 103% | 102% | 100% | 78.9% | 113% | 99.3% | 92.5% | 120% | 84.6% | 92.4% | 110%
CN(C)C[C@@H]1CCn2cc(c3ccccc32)C2=C(C(=O)NC2=O)c2cn(c3ccccc23)CCO1 [Ruboxistaurin] |  |  |  |  |  |  |  |  |  |  |  |  | 0 | 8.61 | 3 | 4.27 | 3.65 | 6.4 | 0 | 8.68 | 6.47 | 7 | 6.63 | 0 | 5.13 | 3.64 | 3.25 | 94.8% | 127% | 104% | 98.9% | 106% | 91.4% | 101% | 118% | 70.7% | 120% | 106% | 97%
CN1CCN(CCOc2cc(OC3CCOCC3)c3c(Nc4c(Cl)ccc5c4OCO5)ncnc3c2)CC1 [Saracatinib] |  |  |  |  |  |  |  |  |  |  |  |  | 2.32 | 1.84 | 2.8 | 0 | 3.31 | 3.75 | 2.85 | 3.3 | 0.426 | 6.52 | 8.36 | 2.67 | 8.75 | 13.4 | 0 | 107% | 80.9% | 105% | 106% | 99.4% | 89.4% | 122% | 93.9% | 113% | 97.2% | 88.7% | 107%
